# According to patent US20170348277A1, “CANNABINOID FORMULATION INCLUDING A V[…] OCULAR DELIVERY OF THE SAME” (priority 2017, published 2017):
# What was measured:
# [1] = Vasodilators studied for increasing the rate of delivery of cannabinoids to a desired site of action; details: vasodilator in cannabinoid formulation
# Text: Various vasodilators have been studied that have the desired effect of increasing the rate of delivery of cannabinoids to a desired site of action. […] The classes of vasodilators that may be substituted for the MSM of the present invention either in a preferred combination or in isolation. These classes include: • Alpha-adrenoceptor antagonists (alpha-blockers) • Angiotensin converting enzyme (ACE) inhibitors • Angiotensin receptor blockers (ARBs) • Beta2-adrenoceptor agonists (β2-agonists) • Calcium-channel blockers (CCBs) • Centrally acting sympatholytics • Direct acting vasodilators • Endothelin receptor antagonists • Ganglionic blockers • Nitrodilators • Phosphodiesterase inhibitors • Potassium-channel openers • Renin inhibitors
# [2] = oral; cited from earlier work
substance,measurement,setting,value
methylsulfonylmethane [MSM],increasing the rate of delivery of cannabinoids to a desired site of action,[1],sufficiently effective
same,safe dose when taken orally,[2],up to 2 gm/kg of body weight per day
